“Also recorded” adds a separate entry of the source. Like-named read-outs stand apart in the source and are kept apart here.
Tests used:
cultured HFSCs [1] = assay: Marker expression in cultured HFSCs (immunofluorescence, immunoblot, qPCR); type: cell-based, mouse; conditions: for resolution of lineage plasticity and HFSC behavior: combination of atRA and PKCi, 3D culture
Text: We first explored these two hits against the backdrop of our more physiological (serum-free) conditions, where SOX9 and KLF5 had already partitioned their expression peripherally and internally within colonies, respectively (FIG. 1 Panel C).
Immunoblot, qPCR and additional immunofluorescence analyses strengthened the evidence that PKCi and atRA resolve lineage plasticity (FIG. 1 Panel D, FIG. S2, Panels C to E).

cultured HFSCs [2] = assay: HFSC quiescence / bulge identity in culture (Nfatc1, Cxcl14 reporter); type: cell-based, mouse
Text: In vivo, HFSCs can be divided into two populations: those in a more quiescent state found in the bulge and ones primed for activation, located in the ‘hair germ’ (HG) just below the bulge. As BMP6 is produced by the inner bulge and responsible for maintaining HFSCs in their quiescent state (FIG. 2 Panel A), we continued to utilize a described culture system by assessing how these factors impact HFSC activation and fate commitment.
BMPs triggered cell cycle exit (FIG. 9 Panel A).
(§1) ERKi was also excluded because of its known ability to regulate the initiation of hair growth. Both atRA (10 nM-1 μM) and PKCi (0.1-10 μM) were titrated to determine the optimal concentration to reduce lineage plasticity and promote physiological HFSC behavior. […] In contrast, BMP6-mediated Nfatc1 mRNA upregulation (quiescence marker) was maximal at 10 nM. Therefore, the amount of atRA should be modified in HFSC cultures to support the desired cell fate in combination with these and possibly other growth factors.

Klf5-EGFP = Klf5-EGFP lineage plasticity reporter in 3D cultured HFSCs (flow cytometry); type: cell-based, mouse; conditions: for reduction of Klf5-EGFP levels: atRA and PKCi tested in combination; for effect on lineage plasticity (Klf5-EGFP levels): screen of small molecule library, serum-free 3D culture; for Klf5-EGFP levels: media modification
human keratinocytes = assay: Human keratinocyte culture under the described conditions, 7 days; type: cell-based; conditions: atRA plus PKCi added to B-27 media
Text: This example relates to FIG. 21. With respect to FIG. 21, to assess the translatability of the described methodology enabling the faithful recapitulation of hair follicle stem cell (HFSC) identity in culture to humans, we introduced the described conditions developed in the mouse to human keratinocytes.

HFSCs [3] = assay: HFSC growth, survival and colony formation in 3D Matrigel culture; type: cell-based, mouse; conditions: for concentration at which maximal rates of cell proliferation were reached: 3D Matrigel culture, standard HFSC media
CD34^+ HFSCs = assay: Topical treatment of mouse back skin during resting phase of the hair cycle; type: in vivo, mice; conditions: telogen
cultured HFSCs [4] = assay: Rspo/WNT-mediated HFSC activation in culture (TCF/LEF, Lgr5, EdU); type: cell-based, mouse
Text: In vitro, none of the four WNT-regulating TCF/LEF transcription factors were expressed under standard serum conditions or in serum-free conditions, even with PKCi. […] These HFSC-associated TFs were also stimulated by BMP6, consistent with a raised threshold for activating WNT during quiescence (FIG. 10, Panels A and B). […] Rspo-mediated HFSC proliferation was sensitive to atRA with the greatest cooperative effect seen at 10-fold higher the atRA concentration that had been optimal for quiescence-related features of stemness (FIG. 2 Panel E, FIG. 10 Panel D).
as §1

hair follicle = assay: Topical treatment of mouse back skin at mid-anagen (HF downgrowth)
HFSCs [5] = assay: Wound repair with lineage-traced HFSCs, topical treatment; type: in vivo, mice
Text: The recruitment of HFSCs to epidermal repair is a multistep process, involving first the entry of HFSCs into a lineage plasticity state, second the fate switch to an epidermal fate and then later, the rebalancing of stem cell numbers across tissue compartments. Given the need for atRA to drive hair lineage determination, we analyzed whether elevating atRA after injury might diminish the ability of HFSCs to enter a state of lineage plasticity after wounding. To test this, we administered topical atRA immediately after wounding to telogen-phase, lineage marked HFSCs. While entry into the hair cycle proceeded normally after injury, topical atRA led to a stem cell imbalance (FIG. 5 Panel D).
To assess the consequences of promoting lineage plasticity following injury, we placed mice on a vitamin A-deficient diet that depleted the skin of retinol without affecting body mass (FIG. 15 Panel E). In this case, following tissue injury, mobilized HFSCs entered a prolonged stated of dual lineage potential well into the later stages of repair (FIG. 5 Panel D). […] By day 30, vitamin A deficiency also elevated the fraction of stem cells that contributed to the repaired epidermis and diminished the number remaining in the bulge.

HFSCs [6] = assay: Transplantation of precultured HFSCs with dermal fibroblasts onto mouse back skins; type: in vivo; conditions: HFSCs precultured in serum-free media primed with either atRA, BMP6 or Rspo
Text: By overcoming the hurdles to lineage progression in vitro, we challenged the in vivo regenerative potential of the described lineage-specified cell populations. YFP-labeled progenitors from each group were combined with allogenic dermal fibroblasts and transplanted onto mouse back skins.

cultured HFSCs [7] = assay: Directed differentiation of cultured HFSCs to HS and IRS lineages (Cux1 reporters, GATA3, HOXC13); type: cell-based, mouse; conditions: for hair shaft (HS) differentiation (HOXC13, HS reporter): WNT-BMP co-activated HFSCs
[8] = daily topical during HF downgrowth

In the case of `Cn1c2ccccc2c2c3c(c4c5ccccc5n(CCC#N)c4c21)CNC3=O` [PKCi, Go-6976], the “KRT6 and Ets2 expression” value (cultured HFSCs [1]) is reported as “suppressed”, the “resolution of lineage plasticity and HFSC behavior” value (cultured HFSCs [1]) is reported as “optimally resolved lineage plasticity and favored HFSC behavior” and the KLF5 expression (cultured HFSCs [1]; serum-free conditions) is reported as “suppressed KLF5 expression”. The Cxcl14 activity (cultured HFSCs [2]) was “little or no effect on Cxcl14 activity”, the “reduction of Klf5-EGFP levels” value (Klf5-EGFP) was “most effective at reducing Klf5-EGFP levels” and the “effect on lineage plasticity (Klf5-EGFP levels)” value (Klf5-EGFP) was “effective at reducing lineage plasticity without affecting proliferation; also recorded: particularly effective agents impacting lineage plasticity”. The “minimum concentration required to achieve maximal effect on lineage plasticity and HFSC fate” value (Klf5-EGFP; titrated 0.1-10 μM) was 1 µM, the KLF5 expression (human keratinocytes) was “further suppressed KLF5 expression in both basal and suprabasal layers” and the SOX9 levels (human keratinocytes) was “upregulated SOX9 levels”. The “keratin profile (KRT10, KRT6, KRT15)” value (human keratinocytes; listed as G66976) was “reductions in KRT10 and KRT6; also recorded: upregulation of KRT15”.

In the case of `C[C@]12CCC(=O)C=C1CC[C@@H]1[C@@H]2[C@@H](O)C[C@@]2(C)[C@H]1CC[C@]2(O)C(=O)CO` [Hydrocortisone, hydrocortisone], the “effect on cell survival, colony formation or proliferation” value (“effect on cell survival” below) (HFSCs [3]; media component testing) is reported as “not necessary for colony formation or cell proliferation”.

In the case of `C[C@@H](N)[C@H]1CC[C@H](C(=O)Nc2ccncc2)CC1` [Y-27632], the “effect on cell survival” value (HFSCs [3]; media component testing) is reported as “increase cell survival and CFE”.

For `CC(C)CCC[C@@H](C)[C@H]1CC[C@H]2[C@@H]3CC=C4C[C@@H](O)CC[C@]4(C)[C@H]3CC[C@]12C` [Cholesterol], the HFSC colony growth (HFSCs [3]; serum-free media) was “increase colony growth without compromising reductions in lineage plasticity”.

`CC1=C(/C=C/C(C)=C/C=C/C(C)=C/C(=O)O)C(C)(C)CCC1` [atRA, all-trans-retinoic acid] was tested, and the “hair cycle (anagen) entry” value (CD34^+ HFSCs) was “facilitated hair cycle entry”, the “hair cycle (anagen) entry” value (CD34^+ HFSCs; listed as RA) was “accelerated the onset of anagen entry” and the “Nfib and Tbx1 expression” value (cultured HFSCs [1]) was “restored Nfib and Tbx1 expression”. The “epidermal markers Sca1 and KRT10” value (cultured HFSCs [1]) was “suppressed epidermal markers”, the “Sox9 mRNA levels” value (cultured HFSCs [1]; atRA titrated 10 nM-1 μM) was “increased Sox9 mRNA levels in a dose-dependent manner” and the “resolution of lineage plasticity and HFSC behavior” value (cultured HFSCs [1]) was “optimally resolved lineage plasticity and favored HFSC behavior”. The KLF5 expression (cultured HFSCs [1]; serum-free conditions) was “not as effective in reducing KLF5”, the SOX9 population (cultured HFSCs [1]; serum-free conditions) was “markedly expanded the SOX9 population” and the “Tcf7l1 (TCF3) and Tcf7l2 (TCF4) expression” value (cultured HFSCs [4]) was “promoted expression”. For the same molecule, the “Sox9 and Rspo-mediated Lgr5 upregulation” value (cultured HFSCs [4]; compared among physiological vitamin A derivatives) was “greatest effect on Sox9 and Rspo-mediated Lgr5 upregulation”, the “atRA concentration at which Lgr5 mRNA upregulation and EdU incorporation were optimized” value (cultured HFSCs [4]; with Rspo) was 100 nM and the “atRA concentration for greatest cooperative effect on Rspo-mediated HFSC proliferation relative to concentration optimal for quiescence” value (cultured HFSCs [4]; with Rspo) was 10 fold. The TAC differentiation (hair follicle; [8]) was “prevented TAC differentiation”, the hair regrowth (hair follicle; [8]) was “prevented hair regrowth” and the “proportion of HOXC13^+ to GATA3^+ cells” value (hair follicle; topical, mid-anagen) was “reduced the relative proportion of HOXC13^+ to GATA3^+ cells”. For the same molecule, the “size of the hair bulb” value (hair follicle; topical, mid-anagen) was “substantially reduced the size of the hair bulb overall”, the “bulge HFSC identity (Nfatc1, Cxcl14-EGFP reporter)” value (cultured HFSCs [2]) was “dose-dependent boost in bulge HFSC identity, optimal at low concentration” and the “bulge HFSC identity (Nfatc1, Cxcl14-EGFP reporter)” value (cultured HFSCs [2]; listed as RA) was “increased”. For the same molecule, the “atRA concentration at which BMP6-mediated Nfatc1 mRNA upregulation was maximal” value (cultured HFSCs [2]; with BMP6) was 10 nM, the “HFSC lineage plasticity state during wound repair” value (HFSCs [5]; topical after wounding) was “Fewer HFSCs entered the lineage plasticity state” and the “restoration of skin barrier (transepidermal water loss, TEWL)” value (HFSCs [5]; topical after wounding) was “clear delay in restoring the skin's barrier”. The “HFSC lineage plasticity state during wound repair” value (HFSCs [5]; topical after wounding, listed as RA) was “accelerated lineage plasticity resolution”, the “hair regeneration and HFSC fate in vitamin A-deficient mice” value (HFSCs [5]; topical to wound bed, vitamin A-deficient diet) was “all of these features were rescued” and the “hair production upon engraftment” value (HFSCs [6]) was “efficiently produced hair”. For the same molecule, the “reduction of Klf5-EGFP levels” value (Klf5-EGFP) was “most effective at reducing Klf5-EGFP levels”, the “effect on lineage plasticity (Klf5-EGFP levels)” value (Klf5-EGFP) was “effective at reducing lineage plasticity without affecting proliferation; also recorded: particularly effective agents impacting lineage plasticity” and the KLF5 expression (human keratinocytes) was “further suppressed KLF5 expression in both basal and suprabasal layers”. For the same molecule, the SOX9 levels (human keratinocytes) was “upregulated SOX9 levels” and the “keratin profile (KRT10, KRT6, KRT15)” value (human keratinocytes) was “reductions in KRT10 and KRT6; also recorded: upregulation of KRT15”.

`[Ca+2].[Cl-].[Cl-]` [CaCl2, Calcium Chloride] was tested, and the “effect on cell survival” value (HFSCs [3]) was “Less CaCl2 reduced cell proliferation while higher amounts promoted epidermal differentiation”.

For `N[C@@H](CCC(=O)N[C@@H](CS)C(=O)NCC(=O)O)C(=O)O` [glutathione], the Klf5-EGFP levels (Klf5-EGFP) was “greatest impact when removed”.

With `Cc1ccc(C2=CCC(C)(C)c3ccc(C#Cc4ccc(C(=O)O)cc4)cc32)cc1` [AGN193109] the “hair shaft (HS) differentiation (HOXC13, HS reporter)” value (cultured HFSCs [7]) was “uniquely promoted”, the “hair shaft (HS) differentiation (HOXC13, HS reporter)” value (cultured HFSCs [7]; listed as RARi) was “primarily increased HOXC13 expression and enhancer epicenter reporter activity for the HS lineage” and the “HF downgrowth and epidermal flux following wounding” value (HFSCs [5]; topical) was “reducing HF downgrowth and promoting epidermal upward flux”.

For EGF: epidermal growth factor, mitogen, the “concentration at which maximal rates of cell proliferation were reached” value (HFSCs [3]) was 25 ng/mL.

B1: BMP6: bone morphogenetic protein; promotes HFSC quiescence (protein, UniProt P22004 375-513, looked up)
Bone morphogenetic protein 6: SASSRRRQQSRNRSTQSQDVARVSSASDYNSSELKTACRKHELYVSFQDLGWQDWIIAPKGYAANYCDGECSFPLNAHMNATNHAIVQTLVHLMNPEYVPKPCCAPTKLNAISVLYFDDNSNVILKKYRNMVVRACGCH
In the case of B1, the “Tcf7l1 (TCF3) and Tcf7l2 (TCF4) expression” value (cultured HFSCs [4]) is reported as “stimulated”, the cell state (cultured HFSCs [2]; BMP6 with low concentration of atRA (10 nM)) is reported as “resulted in cell cycle exit and maintained a state resembling quiescence” and the “cell cycle exit / quiescence (Nfatc1 expression, Cxcl14 promoter reporter)” value (cultured HFSCs [2]; compared among BMPs) is reported as “most potent effect”. For the same molecule, the “hair production upon engraftment” value (HFSCs [6]) was “efficiently produced hair”.

B2: BMP4: bone morphogenetic protein (protein, UniProt P12644 293-408, looked up)
Bone morphogenetic protein 4: SPKHHSQRARKKNKNCRRHSLYVDFSDVGWNDWIVAPPGYQAFYCHGDCPFPLADHLNSTNHAIVQTLVNSVNSSIPKACCVPTELSAISMLYLDEYDKVVLKNYQEMVVEGCGCR
B2 was tested, and the lineages formed (cultured HFSCs [7]; R-spondins, BMP2 and BMP4 together) was “directed HFSCs to form the hair shaft and inner root sheath lineages” and the “Cux1 (IRS) and Cux1 (HS) reporter activity” value (cultured HFSCs [7]; alongside Rspo) was “most effective in upregulating reporter activity”.

B3: FGF10: fibroblast growth factor 10, native HFSC niche mitogen (protein, UniProt O15520 38-208, looked up)
Fibroblast growth factor 10: QALGQDMVSPEATNSSSSSFSSPSSAGRHVRSYNHLQGDVRWRKLFSFTKYFLKIEKNGKVSGTKKENCPYSILEITSVEIGVVAVKAINSNYYLAMNKKGKLYGSKEFNNDCKLKERIEENGYNTYASFNWQHNGRQMYVALNGKGAPRRGQKTRRKNTSAHFLPMVVHS
For B3, the “concentration at which maximal rates of cell proliferation were reached” value (HFSCs [3]) was 10 ng/mL and the Klf5-EGFP levels (Klf5-EGFP) was “consistently lower”.

Source: US20250110116A1, “COMPOSITIONS AND METHODS FOR PRODUCING HAIR FOLLICLE STEM CELLS” (The Rockefeller University, priority 2023, published 2025)
